{
  "source": "paper PMC10178127",
  "about": "“Immunomodulatory Effects of the Pea Defensin Psd1 in the Caco-2/Immune Cells Co-Culture upon Candida albicans Infection” (International Journal of Molecular Sciences, 2023)",
  "key": {"Candida albicans v47a3": {"tested_on": "Candida albicans v47a3", "experiment": "Sensitivity to conventional antimycotics, broth dilution method", "type": "cell-based", "excerpt": "The clinical isolate of Candida albicans (v47a3) was collected from the patient with human immunodeficiency virus (HIV) infection and mucosal candidiasis and provided by G.N. Gabrichevsky Research Institute for Epidemiology and Microbiology (Moscow, Russia). This strain was susceptible to conventional antifungal agents except for a slight increase in the minimal inhibitory concentrations for triazole derivatives as was shown using the broth dilution method according to [31] (Supporting Materials, Tables S2 and S3). Strain stock was kept at −70 °C in 10% non-fat milk with 10% glycerol. Melittin (>98% pure) synthesized using a standard solid-phase method was provided by Dr. Sergey V. Sychev in M.M. Shemyakin and Yu.A. Ovchinnikov Institute of Bioorganic Chemistry of the Russian Academy of Sciences (Moscow, Russia)."}, "Caco-2 cells": {"tested_on": "Caco-2 cells", "conditions": "known model substrates of efflux pumps; no reference given; cited from earlier work"}, "[1]": {"tested_on": "human peripheral blood mononuclear cells (PBMCs)", "experiment": "Resazurin-based cell cytotoxicity assay", "conditions": "PBMCs, 24 h, read-out: concentration inducing 50% cell death", "experimental": "The cytotoxic properties of the pea defensin Psd1 were investigated by resazurin-based cell cytotoxicity assay as previously described. In brief, PBMCs were seeded in 96-well plates at 2 × 10^6 cells per well in RPMI-1640 supplemented with 10% FBS and kept in a CO2 incubator for 24 h. After this, serial two-fold dilutions of defensin in a complete culture medium were added to the wells at final concentrations from 0.2 to 50 μM and the plates were incubated for 24 h. Resazurin (Sigma) was added at a final concentration of 70 µM, and the plates were incubated overnight (16–18 h). Fluorescent resorufin was registered using a 535/595 filter at PlateReader AF2200 (Eppendorf). Untreated cells were used as negative controls. Non-ionogenic detergent Triton X-100 and membrane-active peptide melittin from honeybee venom were used as positive controls. The cell viability was calculated according to the following equation: cell viability (%) = (Fsample/Fcontrol) × 100%. Cell lysis was monitored with an Olympus CKX41 microscope."}, "[2]": {"conditions": "V47A3, MIC = 50% growth inhibition, broth dilution according to EUCAST E.DEF 7.3.2, read-out: MICs"}},
  "note": "Read-outs that look alike come from different tables or passages of the source. *1 amine or outer side, *2 acyl side, *3 side chain or, on linkers, in order; H or OH if unused. Where a SMILES comes first, the peptide text is derived from it. Bridges are numbered along the chain shown (N, C = ends). [ ]: non-standard residue; d: D form. The star is where a group is joined. hTyr(3S-OH,4S-OH,3'-OSO3H) = N[C@H](C(=O)O)[C@H](O)[C@@H](O)c1ccc(O)c(OS(=O)(=O)O)c1; pTerphenylCO(4''-OnC5H11) = CCCCCOc1ccc(-c2ccc(-c3ccc(C(=O)*)cc3)cc2)cc1; Orn(4R-OH,5R-OH) = O=C([C@H](C[C@@H](O)[C@@H](O)N[*:3])N[*:1])[*:2]; hTyr(3S-OH,4S-OH) = N[C@H](C(=O)O)[C@H](O)[C@@H](O)c1ccc(O)cc1; Pro(3S-OH,4S-Me) = C[C@H]1CN[C@H](C(=O)O)[C@H]1O; X1 = CCCCCOc1ccc(-c2cc(-c3ccc(C(=O)*)cc3)no2)cc1; Gln(3R-OH) = NC(=O)C[C@@H](O)[C@H](N)C(=O)O; Hyp = O=C(O)[C@@H]1C[C@@H](O)CN1",
  "data": [
    {"compound": "C[C@@H](c1ncncc1F)[C@](O)(Cn1cncn1)c1ccc(F)cc1F", "note": "[Voriconazole]", "values": [
      {"measurement": "MIC", "setting": "Candida albicans v47a3; [2]", "result": 0.5, "unit": "µg/mL"}
    ]},
    {"compound": "CCCCCOc1ccc(-c2ccc(-c3ccc(C(=O)N[C@H]4C[C@@H](O)[C@@H](O)NC(=O)[C@@H]5[C@@H](O)[C@@H](C)CN5C(=O)[C@H]([C@@H](C)O)NC(=O)[C@H]([C@H](O)[C@@H](O)c5ccc(O)cc5)NC(=O)[C@@H]5C[C@@H](O)CN5C(=O)[C@H]([C@@H](C)O)NC4=O)cc3)cc2)cc1", "note": "[Anidulafungin] ({pTerphenylCO(4''-OnC5H11)}-[Orn(4R-OH,5R-OH)]T[Hyp][hTyr(3S-OH,4S-OH)]T[Pro(3S-OH,4S-Me)]; lactam 1-C)", "values": [
      {"measurement": "MIC", "setting": "Candida albicans v47a3; V47A3, read-out: MICs", "result": 0.03, "unit": "µg/mL"}
    ]},
    {"compound": "C[C@@H]1[C@H](O)[C@@H](C)/C=C/C=C/C=C/C=C/C=C/C=C/C=C/[C@H](O[C@@H]2O[C@H](C)[C@@H](O)[C@H](N)[C@@H]2O)C[C@@H]2O[C@](O)(C[C@@H](O)C[C@@H](O)[C@H](O)CC[C@@H](O)C[C@@H](O)CC(=O)O[C@H]1C)C[C@H](O)[C@H]2C(=O)O", "note": "[Amphotericin B]", "values": [
      {"measurement": "MIC", "setting": "Candida albicans v47a3; V47A3, MIC = >90% inhibition of fungal growth, broth dilution according to EUCAST E.DEF 7.3.2, read-out: MICs", "result": 0.5, "unit": "µg/mL"}
    ]},
    {"compound": "CC[C@H](C)C[C@H](C)CCCCCCCCC(=O)N[C@H]1C[C@@H](O)[C@@H](NCCN)NC(=O)[C@@H]2[C@@H](O)CCN2C(=O)[C@H]([C@H](O)CCN)NC(=O)[C@H]([C@H](O)[C@@H](O)c2ccc(O)cc2)NC(=O)[C@@H]2C[C@@H](O)CN2C(=O)[C@H]([C@@H](C)O)NC1=O", "note": "[Caspofungin]", "values": [
      {"measurement": "MIC", "setting": "Candida albicans v47a3; V47A3, read-out: MICs", "result": 0.06, "unit": "µg/mL"}
    ]},
    {"compound": "OC(Cn1cncn1)(Cn1cncn1)c1ccc(F)cc1F", "note": "[Fluconazole]", "values": [
      {"measurement": "MIC", "setting": "Candida albicans v47a3; [2]", "result": 8, "unit": "µg/mL"}
    ]},
    {"compound": "O=C1c2c(O)ccc(O)c2C(=O)c2c(NCCNCCO)ccc(NCCNCCO)c21", "note": "[mitoxantrone]", "values": [
      {"measurement": "efflux ratio (ER)", "setting": "Caco-2 cells", "result": "> 10"}
    ]},
    {"compound": "Nc1[nH]c(=O)ncc1F", "note": "[Flucytosine]", "values": [
      {"measurement": "MIC", "setting": "Candida albicans v47a3; [2]", "result": "≤ 0.06", "unit": "µg/mL"}
    ]},
    {"compound": "CCC(C)n1ncn(-c2ccc(N3CCN(c4ccc(OCC5COC(Cn6cncn6)(c6ccc(Cl)cc6Cl)O5)cc4)CC3)cc2)c1=O", "note": "(stereo not shown) [Itraconazole]", "values": [
      {"measurement": "MIC", "setting": "Candida albicans v47a3; [2]", "result": 0.12, "unit": "µg/mL"}
    ]},
    {"compound": "CC[C@]1(O)C[C@@H]2CN(CCc3c([nH]c4ccccc34)[C@@](C(=O)OC)(c3cc4c(cc3OC)N(C)[C@H]3[C@@](O)(C(=O)OC)[C@H](OC(C)=O)[C@]5(CC)C=CCN6CC[C@]43[C@@H]65)C2)C1", "note": "[vinblastine]", "values": [
      {"measurement": "efflux ratio (ER)", "setting": "Caco-2 cells", "result": "> 10"}
    ]},
    {"compound": "CC[C@@H]([C@H](C)O)n1ncn(-c2ccc(N3CCN(c4ccc(OC[C@@H]5CO[C@@](Cn6cncn6)(c6ccc(F)cc6F)C5)cc4)CC3)cc2)c1=O", "note": "[Posaconazole]", "values": [
      {"measurement": "MIC", "setting": "Candida albicans v47a3; [2]", "result": 0.12, "unit": "µg/mL"}
    ]},
    {"compound": "melittin [reference compound]", "values": [
      {"measurement": "IC50", "setting": "[1]", "result": 6.25, "unit": "µM"}
    ]},
    {"compound": "C[C@H]1O[C@@H](O[C@H]2[C@@H](O)C[C@H](O[C@H]3[C@@H](O)C[C@H](O[C@H]4CC[C@@]5(C)[C@H](CC[C@@H]6[C@@H]5C[C@@H](O)[C@]5(C)[C@@H](C7=CC(=O)OC7)CC[C@]65O)C4)O[C@@H]3C)O[C@@H]2C)C[C@H](O)[C@@H]1O", "note": "[digoxin]", "values": [
      {"measurement": "efflux ratio (ER)", "setting": "Caco-2 cells", "result": "> 10"}
    ]},
    {"compound": "CCCCCOc1ccc(-c2cc(-c3ccc(C(=O)N[C@H]4C[C@@H](O)[C@@H](O)NC(=O)[C@@H]5[C@@H](O)[C@@H](C)CN5C(=O)[C@H]([C@H](O)CC(N)=O)NC(=O)[C@H]([C@H](O)[C@@H](O)c5ccc(O)c(OS(=O)(=O)O)c5)NC(=O)[C@@H]5C[C@@H](O)CN5C(=O)[C@H]([C@@H](C)O)NC4=O)cc3)no2)cc1", "note": "[Micafungin] (X1-[Orn(4R-OH,5R-OH)]T[Hyp][hTyr(3S-OH,4S-OH,3'-OSO3H)][Gln(3R-OH)][Pro(3S-OH,4S-Me)]; lactam 1-C)", "values": [
      {"measurement": "MIC", "setting": "Candida albicans v47a3; V47A3, read-out: MICs", "result": 0.008, "unit": "µg/mL"}
    ]}
  ]
}
